The numbers were not newly measured in US9974861B2, “Peptide slow-release formulations” (CAMURUS AB, priority 2007, dated 2018), which cites them from elsewhere.

Consider “Ala-Gly-Cys-Lys-Asn-Phe-Phe-Trp-Lys-Thr-Phe-Thr-Ser-Cys [SST-14]”, for which the “Affinity of SSTR1-SSTR5” value in the data set on SSTRs (SSTR1-SSTR5) (five known types of SSTRs) was “equally high affinity”. For the same compound, for the setting “natural hormone”, the Biological half-life is reported as 1-3 minutes.
As to `C[C@@H](O)[C@@H]1NC(=O)[C@H](CCCCN)NC(=O)[C@@H](Cc2c[nH]c3ccccc23)NC(=O)[C@H](Cc2ccccc2)NC(=O)[C@@H](NC(=O)[C@H](N)Cc2ccccc2)CSSC[C@@H](C(=O)N[C@H](CO)[C@@H](C)O)NC1=O` [Octreotide, D-Phe-Cys-Phe-D-Trp-Lys-Thr-Cys-Thr-ol (2-7 disulphide bridge)], the “Selectivity for SSTR2 and SSTR5” value with SSTRs (SSTR1-SSTR5) was “high selectivity”. Moreover, the Terminal half-life result (in vivo) was “around 1.7 hours”.
